Measurements: US20030055023A1, “Formulations containing etomidate and a sulfoalkyl ether cyclodextrin” (priority 2001, published 2003)
In brackets after ≈: the same amount, converted by molar mass.

Assay: Solubility of etomidate
Format: physicochemical
Details: aqueous buffer
Excerpt: . […] . No. 4,289,783 to Mesens).
By “therapeutic agent/SAE-CD complex” is generally meant a clathrate or inclusion complex of a sulfoalkyl ether cyclodextrin derivative of the formula (1) and a therapeutic agent. By “complexed” is meant “being part of a clathrate or inclusion complex with”, i.e., a complexed therapeutic agent is part of a clathrate or inclusion complex with a sulfoalkyl ether cyclodextrin derivative. By “major portion” is meant at least about 50% by weight of the therapeutic compound. Thus, a formulation according to the present invention will contain a therapeutic agent of which more than about 50% by weight is complexed with an SAE-CD. In various embodiments, preferably greater than 60% by weight, more preferably greater than 75% by weight, even more preferably greater than 90% by weight, and most preferably greater than 95% by weight of the therapeutic agent will remain complexed with an SAE-CD while in the pharmaceutical formulation. The actual percent of drug that is complexed will vary according to the complexation equilibrium constant characterizing the complexation of a specific SAE- CD to a specific drug. […] . In this case the amount complexed is only 75%. Generally, the greater the percentage of drug that is complexed, the more effectively the SAE-CD will reduce pain on injection. […]

## CCOC(=O)c1cncn1[C@H](C)c1ccccc1 [Etomidate, (R)-(+)ethyl 1-(1-phenylethyl)-1H-imidazole-5-carboxylate]
0.025 M phosphate buffer at pH 7.0
  solubility: ~450 µg/mL (≈ 1840 µM)
25mM phosphate buffer, pH 7.4
  solubility: 450 µg/mL (≈ 1840 µM)
